# US20260193254A1, “2-OXOQUINAZOLINE CRYSTALLINE FORMS” (IDEAYA Biosciences, Inc., priority 2022, published 2026)
# How the values were obtained:
# [1] = Equilibrium solubility in FeSSIF and FaSSIF; format: physicochemical; details: 24 hours; for Solubility: target concentration 1 mg/mL, HPLC method 1 or 2 (footnote)
# Method: Solid part and liquid part were separated by filtration. Solubility was measured by HPLC. Solid part (wet cake) was investigated by XRPD.
# [2] = Grinding simulation experiments - dry grinding; format: physicochemical
# Method: About 20 mg of Form A, Form D, and Form T were ground manually with a mortar and a pestle for 5 min or 1 min. Potential from transition and degree of crystallinity were evaluated by XRPD.
# [3] = Intrinsic dissolution rate (IDR) evaluation in FaSSIF; format: physicochemical; details: FaSSIF at 37° C.; for XRPD after IDR: disc surface after 120 min; for Concentration detected during IDR test (Comments): for Form V and Form A remains same during the whole process, LOQ for Form T and amorphous form
# Method: Only one surface of the pellet was exposed (surface area=0.50 cm^2) to 900 mL FaSSIF, the dissolution medium. Temperature of chamber medium was set as 37±0.5° C. Shaft rotation as 100 rpm and sampling time points as 2 min, 5 min, 10 min, 15 min, 20 min, 25 min, 30 min, 35 min, 40 min, 50 min, 60 min, and 120 min. 2 mL sample solution was withdrawn at each time point and centrifuged at 14,000 rpm for 5 min to isolate supernatant. Then concentration of the supernatant was analyzed by HPLC. After 120 min, XRPD of disc surface was measured.
# [4] = Bulk stability of crystalline forms; format: physicochemical; details: for Purity, Bulk (HPLC): Solid state; for Initial purity: before stress, HPLC; for chemical stability and physical stability (bulk stability): stressed under 25° C./92 RH, 40% C/75% RH and 60° C., XRPD and HPLC
# Description: (§1) Solids obtained after bulk stability study were characterized by XRPD and HPLC.
# [5] = Grinding simulation experiments - wet grinding (granulation); format: physicochemical
# Method: Water or ethanol was added drop wise to about 20 mg of Form A, Form D, or Form T until solid was wetted sufficiently. Vortex was applied between each addition. Samples were dried under ambient condition for 10 min. Potential form transition and degree of crystallinity were evaluated by XRPD.
# [6] = Bulk stability of crystalline forms; format: physicochemical; parameters: key: Color A: All No change of color; details: Solid state
# Description: as §1
# [7] = Hygroscopicity: water sorption and desorption by dynamic vapor sorption (DVS); format: physicochemical
# Method: In some embodiments, the crystalline form described herein is further characterized by is further characterized by a dynamic vapor sorption (DVS) profile. In some embodiments, a DVS is recorded according to the method as described herein with a cycle of 40-0-95-0-40% RH at 25° C.
# Water sorption and desorption behaviors of Form A, Form C, Form D, and Form T were investigated by DVS at 25° C. with a cycle of 40-0-95-0-40% RH. Dm/dt was 0.002. Minimum equilibration time was 60 min. Maximum equilibration time was 360 min. XRPD was measured after DVS test to determine potential form change.
# [8] = biological target: T1, MAT2A enzyme (Homo sapiens, UniProt P31153); assay: Phosphate Sensor Fluorescence Assay; format: biochemical; details: inhibition of MAT2A enzyme
# T1 construct: Human MAT2A: Cepter, amino acids 1-395; purchased Cepter clone ID 329, lot 00023-123; clone ID 334, lot 00023-148
# T1 sequence (P31153 whole entry, the tested form may be a part): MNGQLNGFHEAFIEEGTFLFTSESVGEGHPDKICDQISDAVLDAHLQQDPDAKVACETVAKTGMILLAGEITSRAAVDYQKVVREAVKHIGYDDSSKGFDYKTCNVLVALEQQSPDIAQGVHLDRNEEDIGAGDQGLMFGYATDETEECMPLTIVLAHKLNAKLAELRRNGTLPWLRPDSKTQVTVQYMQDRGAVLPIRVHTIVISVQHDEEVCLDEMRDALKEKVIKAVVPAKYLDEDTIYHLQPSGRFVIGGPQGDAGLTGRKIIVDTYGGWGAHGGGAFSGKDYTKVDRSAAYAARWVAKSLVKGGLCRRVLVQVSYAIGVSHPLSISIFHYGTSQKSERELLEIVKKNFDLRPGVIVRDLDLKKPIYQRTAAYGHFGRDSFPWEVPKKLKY
# Method: The ability of the compound of Formula (I) described in Example 1 to inhibit MAT2A enzyme was determined using a Phosphate Sensor Fluorescence Assay described below.
# MAT2A enzyme is incubated with a test compound in DMSO or DMSO and its substrates (L-methionine and ATP) in a microtiter plate. The enzymatic reaction is stopped by the addition of Working Phosphate Sensor Mixture. The plate is analyzed for fluorescence at 450 nm. The high control (DMSO with enzyme and its substrates) gives high fluorescence which represents no inhibition of enzymatic activity while the low control (DMSO with MAT2A substrates and no enzyme) gives low fluorescence which represents full inhibition of enzymatic activity. […]
# For the assay, a mixture of 1 mM L-methionine/1 mM ATP (2× final pre-stopped concentration) in assay buffer; MAT2A (2× final pre-stopped concentration) in Assay Buffer and Working Phosphate Sensor Mixture (1.5 μM Phosphate Sensor/30 mM EDTA in Assay Buffer, which is 3× final concentrations) were prepared. […] The plate was read for fluorescence at 450 nm after exciting at 430 nm.
# Percent inhibition was calculated in Chemical and Biological Information System (CBIS), (ChemInnovation Software Inc.). […]
# [9] = Behavior under compression; format: physicochemical; details: 2 Mpa/2 min, hydraulic press
# Method: XRPD characterization was performed to investigate polymorphic behavior under compression.
# [10] = Bulk stability of crystalline forms; format: physicochemical; parameters: key: Color A: All No change of color; Color B: Slightly discoloration; details: Solid state, 60° C., tight container, 2 weeks
# Description: as §1
# [11] = 25° C./92% RH, open container, 1 week
# [12] = 25° C./92% RH, open container, 2 weeks
# [13] = 25° C./92% RH, open container, 4 weeks
# [14] = 40° C./75% RH, open container, 1 week
# [15] = 40° C./75% RH, open container, 2 weeks
# [16] = 40° C./75% RH, open container, 4 weeks
# [17] = 60° C., tight container, 1 week
# [18] = 60° C., tight container, 2 weeks
# [19] = 60° C., tight container, 4 weeks
Compound,"final pH ([1]; FaSSIF, pH 6.5, 37° C.)","Solubility ([1]; FaSSIF, pH 6.5, 37° C.) [µg/mL]","final pH ([1]; FeSSIF, pH 5.0, 37° C.)","Solubility ([1]; FeSSIF, pH 5.0, 37° C.) [µg/mL]",XRPD after IDR [3],Concentration detected during IDR test (Comments) [3],"Purity, Bulk (HPLC) [4, 11] [%]","Purity, Bulk (HPLC) [4, 12] [%]","Purity, Bulk (HPLC) [4, 13] [%]","Purity, Bulk (HPLC) [4, 14] [%]","Purity, Bulk (HPLC) [4, 15] [%]","Purity, Bulk (HPLC) [4, 16] [%]","Purity, Bulk (HPLC) [4, 17] [%]","Purity, Bulk (HPLC) [4, 18] [%]","Purity, Bulk (HPLC) [4, 19] [%]",Initial purity [4] [%],chemical stability and physical stability (bulk stability) [4],"Color [6, 11]","Color [6, 12]","Color [6, 13]",also measured
"Nc1nc(=O)n(-c2ccccc2Cl)c2nc(C(F)(F)F)ccc12 [Form T, 4-Amino-1-(2-chlorophenyl)-7-(trifluoromethyl)pyrido[2,3-d]pyrimidin-2(1H)-one]",6.5,80,5.0,160,No form change,<LOQ (0.0003 mg/mL,99.1,99.0,98.9,98.9,98.7,98.3,99.1,99.0,98.7,99.1,good chemical stability and physical stability,A,A,A,"XRPD of solid after solubility test ([1]; FaSSIF, pH 6.5, 37° C.): Form T; XRPD of solid after solubility test ([1]; FeSSIF, pH 5.0, 37° C.): Form T; XRPD after dry grinding ([2]; Dry grinding for 5 min): substantially amorphous; tolerance to dry grinding ([2]; ground manually with mortar and pestle, 5 min or 1 min, XRPD): poor tolerance; XRPD after wet grinding ([5]; Water): No form change; form change after granulation with water ([5]; wet grinding, XRPD): no form change; tolerance to granulation with water ([5]; wet grinding, XRPD): good tolerance; Color [6, 14]: A; Color [6, 15]: A; Color [6, 16]: A; Color [6, 17]: A; Color [6, 18]: A; Color [6, 19]: A; hygroscopicity ([7]; DVS at 25° C., cycle 40-0-95-0-40% RH): slightly hygroscopic; form change after the DVS test ([7]; XRPD after DVS): No form change"
"Nc1nc(=O)n(-c2ccccc2Cl)c2nc(C(F)(F)F)ccc12 [Formula (I), 4-Amino-1-(2-chlorophenyl)-7-(trifluoromethyl)pyrido[2,3-d]pyrimidin-2(1H)-one]",,,,,,,,,,,,,,,,,,,,,IC50 [8]: < 200 nM
"Nc1nc(=O)n(-c2ccccc2Cl)c2nc(C(F)(F)F)ccc12 [substantially amorphous form, 4-Amino-1-(2-chlorophenyl)-7-(trifluoromethyl)pyrido[2,3-d]pyrimidin-2(1H)-one]",6.5,120,5.0,230,No form change,<LOQ (0.0008 mg/mL,98.5,98.1,97.2,97.5,96.1,93.5,98.4,97.8,97.8,98.7,physically stable,A,A,A,"XRPD after compression [9]: No form change; degradation (bulk stability) ([4]; after exposure to 40° C./75 RH in an open container and 60° C. in a tight container): slight degradation; Color [6, 14]: A; Color [6, 15]: A; Color [6, 16]: A; Color [6, 17]: A; Color [6, 19]: A; Color [10]: B"
